IC50, MIC and ratio data for 13 compounds are collected here from ChEMBL document CHEMBL1275513, “R chi-01, a new family of oxazolidinones that overcome ribosome-based linezolid resistance” (Antimicrob Agents Chemother, 2008).

Converted amounts (≈) assume the structure as drawn.

Assay [1] addresses Bacterial 70S ribosome. Kind of assay: Displacement of [3H]chloramphenicol from 70S ribosomal complex in Staphylococcus aureus ATCC 29213 by competitive binding assay.
The test system of assay [2] is Staphylococcus aureus. In words: Antimicrobial activity against linezolid-,erythromycin-resistant Staphylococcus aureus A7820 with G2576U mutation at 23s rRNA. The format is functional.
For assay [3], the system named is Enterococcus faecalis. Kind of assay: Antimicrobial activity against Enterococcus faecalis ATCC 29212. Type of assay: functional.
The next assay concerns Enterococcus faecium. Kind of assay: Antimicrobial activity against linezolid-resistant Enterococcus faecium A6349 expressing VanA gene. Type of assay: functional.
Assay [4] is described as follows: Selectivity ratio of IC50 for […] to IC50 for Staphylococcus aureus ATCC 29213 50S ribosomal subunit.
Assay [5] relates to Staphylococcus aureus. Kind of assay: Antimicrobial activity against Staphylococcus aureus ATCC 29213. The format is functional.
The subject of assay [6] is Enterococcus faecalis. Kind of assay: Antimicrobial activity against linezolid-resistant Enterococcus faecalis P5. Type of assay: functional.
Assay [7] can be described thus: Inhibition of 50S ribosomal subunit purified from Staphylococcus aureus ATCC 29213 assessed as inhibition of translation using in vitro transcribed mRNA encoding firefly luciferase.
Assay [8] in a line: Inhibition of 50S ribosomal subunit purified from linezolid-,erythromycin-resistant Staphylococcus aureus A7820 with G2576U mutation in 23s rRNA assessed as inhibition of translation using in vitro transcribed mRNA encoding firefly luciferase.
Assay [9] concerns the target Bacterial 70S ribosome. In words: Displacement of [3H]puromycin from 70S ribosomal complex in Staphylococcus aureus ATCC 29213 by competitive binding assay. On the technique in general: In a radioligand displacement assay an active substance lowers the binding of a labelled ligand.

As a reminder, the IC50 is the concentration that gives 50% inhibition. As usually defined, the MIC is the lowest concentration found to suppress growth.

Consider `CC(=O)NC[C@H]1CN(c2ccc(-c3ccc(CN)cc3)c(F)c2)C(=O)O1`, for which the IC50 at Bacterial 70S ribosome [1] was 58 µM; in assay [7], not above 0.02 µM. Further, the minimal inhibitory concentration (MIC) with Staphylococcus aureus [2] amounted to 8 µg/mL (≈ 22.4 µM); in the assay on Enterococcus faecalis [3] it was 0.5 µg/mL (≈ 1.4 µM); in the assay on Enterococcus faecium it was 1 µg/mL (≈ 2.8 µM); against Staphylococcus aureus [5], 4 µg/mL (≈ 11.2 µM); with Enterococcus faecalis [6], 8 µg/mL (≈ 22.4 µM). In addition, the ratio in assay [4] was more than 100.

With `CC(=O)NC[C@H]1CN(c2ccc(-c3ccc(CNCC(N)=O)cc3)c(F)c2)C(=O)O1`, the minimal inhibitory concentration (MIC) against Staphylococcus aureus [2] was 8 µg/mL (≈ 19.3 µM); in the assay with Enterococcus faecalis [3], 0.5 µg/mL (≈ 1.21 µM); against Enterococcus faecium, 1 µg/mL (≈ 2.41 µM); against Staphylococcus aureus [5], 4 µg/mL (≈ 9.65 µM); in the assay with Enterococcus faecalis [6], 8 µg/mL (≈ 19.3 µM). In addition, in [4], the ratio was more than 50. The half-maximal inhibitory concentration (IC50) in assay [7] is not above 0.02 µM.

On to `CC(=O)NC[C@H]1CN(c2ccc(-c3ccc(CNC(=N)N)cc3)c(F)c2)C(=O)O1`, for which the 50% inhibitory concentration (IC50) on Bacterial 70S ribosome [1] is 50 µM; in assay [8] it was 0.08 µM; in assay [7], not above 0.02 µM; at Bacterial 70S ribosome [9], 8.7 µM. For the same compound, the MIC was 8 µg/mL (≈ 20 µM) against Staphylococcus aureus [2]; 2 µg/mL (≈ 5.01 µM) against Enterococcus faecalis [3]; 2 µg/mL (≈ 5.01 µM) in the assay on Enterococcus faecium; 2 µg/mL (≈ 5.01 µM) against Staphylococcus aureus [5]; 8 µg/mL (≈ 20 µM) in the assay with Enterococcus faecalis [6]. The ratio in assay [4] was more than 100.

`CC(=O)NC[C@H]1CN(c2ccc(-c3ccc(Cn4ncnn4)cc3)c(F)c2)C(=O)O1`: the MIC in the assay with Staphylococcus aureus [2] amounted to 1 µg/mL (≈ 2.44 µM); against Enterococcus faecalis [3], 0.25 µg/mL (≈ 0.609 µM); against Enterococcus faecium, 0.5 µg/mL (≈ 1.22 µM); with Staphylococcus aureus [5] it was 0.5 µg/mL (≈ 1.22 µM); with Enterococcus faecalis [6] it was 1 µg/mL (≈ 2.44 µM). For the same compound, the ratio in [4] was determined as 23. Also, in assay [7], the IC50 was found to be 0.06 µM.

In the case of `CC(=O)NC[C@H]1CN(c2ccc(-c3ccc(CNCCCF)cc3)c(F)c2)C(=O)O1`, the IC50 was 45 µM at Bacterial 70S ribosome [1], 0.06 µM in [8] and not above 0.02 µM in assay [7]. The MIC came to 8 µg/mL (≈ 19.2 µM) in the assay on Staphylococcus aureus [2]; 0.5 µg/mL (≈ 1.2 µM) against Enterococcus faecalis [3]; 1 µg/mL (≈ 2.4 µM) against Enterococcus faecium; 1 µg/mL (≈ 2.4 µM) in the assay with Staphylococcus aureus [5]; 2 µg/mL (≈ 4.79 µM) in the assay on Enterococcus faecalis [6]. The ratio in assay [4] was more than 100.

For `CC(=O)NC[C@H]1CN(c2ccc(-c3ccc(Cn4ccnn4)cc3)c(F)c2)C(=O)O1`, the MIC amounted to 1 µg/mL (≈ 2.44 µM) against Staphylococcus aureus [2]; 0.5 µg/mL (≈ 1.22 µM) with Enterococcus faecalis [3]; 1 µg/mL (≈ 2.44 µM) against Enterococcus faecium; 0.5 µg/mL (≈ 1.22 µM) against Staphylococcus aureus [5]; 1 µg/mL (≈ 2.44 µM) against Enterococcus faecalis [6]. In addition, in [4], the ratio was more than 100. The 50% inhibitory concentration (IC50) stood at 0.21 µM in assay [8] and 0.13 µM in assay [7].

In the case of `CC(=O)NC[C@H]1CN(c2ccc(-c3ccc(CNC(=O)/C=C/c4c(C)[nH]c(=O)[nH]c4=O)cc3)c(F)c2)C(=O)O1`, the MIC in the assay on Staphylococcus aureus [2] worked out at 8 µg/mL (≈ 14.9 µM); in the assay with Enterococcus faecalis [3], 1 µg/mL (≈ 1.87 µM); with Enterococcus faecium it was 1 µg/mL (≈ 1.87 µM); with Staphylococcus aureus [5], 0.25 µg/mL (≈ 0.467 µM); with Enterococcus faecalis [6] it was 16 µg/mL (≈ 29.9 µM). In assay [4], the ratio is 17. Further, the half-maximal inhibitory concentration (IC50) in assay [8] was determined as 0.03 µM; in assay [7], 0.09 µM.

In the case of `O=C(N[C@H](CO)[C@H](O)c1ccc([N+](=O)[O-])cc1)C(Cl)Cl` [CHLORAMPHENICOL], the IC50 at Bacterial 70S ribosome [1] was 0.43 µM; in assay [8] it was 54 µM; in assay [7], 7.8 µM. In addition, the minimum inhibitory concentration (MIC) stood at 64 µg/mL (≈ 198 µM) against Staphylococcus aureus [2]; 8 µg/mL (≈ 24.8 µM) against Enterococcus faecalis [3]; 24 µg/mL (≈ 74.3 µM) in the assay with Enterococcus faecium; 8 µg/mL (≈ 24.8 µM) against Staphylococcus aureus [5]; 32 µg/mL (≈ 99 µM) against Enterococcus faecalis [6]. For the same compound, in assay [4], the ratio amounted to 25.

As for `CS(=O)(=O)c1ccc([C@@H](O)[C@@H](CF)NC(=O)C(Cl)Cl)cc1` [FLORFENICOL], the IC50 was determined as 20 µM at Bacterial 70S ribosome [1], 16.4 µM in assay [8] and 0.7 µM in [7]. Moreover, the minimum inhibitory concentration (MIC) turned out to be 64 µg/mL (≈ 179 µM) in the assay with Staphylococcus aureus [2]; 4 µg/mL (≈ 11.2 µM) against Enterococcus faecalis [3]; 16 µg/mL (≈ 44.7 µM) in the assay with Enterococcus faecium; 8 µg/mL (≈ 22.3 µM) against Staphylococcus aureus [5]; 16 µg/mL (≈ 44.7 µM) in the assay on Enterococcus faecalis [6]. Also, the ratio in assay [4] is more than 100.

With `CC(=O)NC[C@H]1CN(c2ccc(N3CCOCC3)c(F)c2)C(=O)O1` [LINEZOLID], the IC50 is 1380 µM on Bacterial 70S ribosome [1], 8.4 µM in assay [8], 0.9 µM in assay [7] and 920 µM on Bacterial 70S ribosome [9]. In addition, the MIC against Staphylococcus aureus [2] stood at 64 µg/mL (≈ 190 µM); against Enterococcus faecium, 16 µg/mL (≈ 47.4 µM); against Enterococcus faecalis [6], 32 µg/mL (≈ 94.9 µM). Moreover, in assay [4], the ratio was more than 100.

For the compound `COc1ccc(C[C@H](N)C(=O)N[C@H]2[C@@H](O)[C@H](n3cnc4c(N(C)C)ncnc43)O[C@@H]2CO)cc1` [PUROMYCIN], on Bacterial 70S ribosome [9], the half-inhibitory concentration (IC50) came out at 0.9 µM.

With `CC(=O)NC[C@H]1CN(c2ccc(-c3ccc(CNCc4cnn[nH]4)cc3)c(F)c2)C(=O)O1` [RADEZOLID], the MIC against Staphylococcus aureus [2] came out at 8 µg/mL (≈ 18.2 µM); in the assay with Enterococcus faecalis [3], 0.25 µg/mL (≈ 0.57 µM); in the assay on Enterococcus faecium, 0.5 µg/mL (≈ 1.14 µM); in the assay with Staphylococcus aureus [5] it was 1 µg/mL (≈ 2.28 µM); with Enterococcus faecalis [6], 1 µg/mL (≈ 2.28 µM). In addition, the ratio in assay [4] was more than 100. Further, the values for the IC50 in assay [8] and in [7] were 0.03 µM and 0.02 µM, respectively.

As to `CSC[S@@+]([O-])CC(CO)NC(=O)/C=C/c1c(C)[nH]c(=O)[nH]c1=O` (some centres undefined) [SPARSOMYCIN], the ratio in [4] amounted to 7. Further, the concentration for half-maximal inhibition (IC50) in assay [7] is not above 0.02 µM.
